Experiments:
[1] = system: TNF-α (NF-κB pathway, THP-1 cells); assay: TNF-α Assay (IC50); type: cell-based, human; settings: Homo sapiens, 600 ng/mL LPS, 3 hours
Experimental: TNF-α Assay (Reported as IC50)
Monocytic THP-1 cells (ATCC: TIB-202) were maintained in accordance with the provider's instructions in RPMI media (Life Technologies, Cat #A10491-01); RPMI was supplemented with 10% heat inactivated fetal bovine serum (Hyclone Cat #SH30396.03). The cells were differentiated into macrophages by the addition of 25 ng/mL IFN-7 for 24 hours at 37° C./5% CO2. Media was exchanged with fresh media with no FBS. The cells were plated at 40,000 cells per well in 384-well flat-bottom cell culture plates (Costar 3764) containing compounds (added in 1:1000) in a 1:3.16 serial dilution series in DMSO and were incubated for 30 minutes at 37° C./5% CO2. The NF-κB pathway was activated with the addition of 600 ng/mL LPS and the cells were incubated for 3 hours at 37° C./5% CO2. At the end of the incubation period, supernatant ([…]) was removed, and TNF-alpha were monitored using an ELISA (Human TNF-α ELISA, R&D systems, Cat #DY210) according to the manufacturer's instructions. 100% inhibition is determined with positive control, TPCA-1.
The IC50 values in the TNF-α assay were calculated from a plot of percentage of inhibition versus the inhibitor concentration by a logistics curve fit according to: Y=[Bottom+(Top−Bottom)]/(1+10^[(Log IC50−X)·Hill Slope], where Y was the […] at the inhibitor concentration, X, “Bottom” was the lowest inhibition value, i.e., 0%, “Top” was the maximum inhibition value, i.e., 100%, and the “Hill Slope” described the slope of the sigmoidal curve between the “Bottom” and “Top” values. The curve fitting was conducted with internally developed software.

[2] = system: NLRP3 inflammasome (IL-1β production in THP-1 cells); assay: IL-1β TR-FRET Assay (percentage of inhibition at 300 nM, 6 μM or 10 μM); type: cell-based, human; settings: LPS priming, ATP activation; for inhibition at 0.3 µM / inhibition at 6 µM: Homo sapiens; for inhibition at 0.3 µM: THP-1, 300 nM, read-out: IL-1β inhibitory rate at 300 nM (%); for inhibition at 6 µM: THP-1, 6 μM, read-out: IL-1β inhibitory rate at 6 μM (%)
Method in brief: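 Percent inhibition of IL-1β used DMSO wells as 0% and 3 μM MCC-950 wells as full inhibition, with supernatant read by HTRF. Beforehand, IFN-γ-differentiated (25 ng/mL, 24 h), LPS-primed (50 ng/mL, 24 h) THP-1 cells received compound 30 min before inflammasome activation by 20 mM ATP for 2 h.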

Row | IC50 [1] [µM] | SMILES | IL-1β inhibitory rate at 300 nM (%) ([2]; 300 nM, 0.3 µM) | inhibition at 0.3 µM [2] [%] | inhibition at 6 µM [2] [%]
1 | > 30 | COc1ccccc1-c1nc2nn(-c3c(C)cc(C)cc3O)cc2c(=O)[nH]1 [Example 47, 2-(2-hydroxy-4,6-dimethylphenyl)-6-(2-methoxyphenyl)-2,5-dihydro-4H-pyrazolo[3,4-d]pyrimidin-4-one] |  | 98 | 
2 | > 30 | COCc1nc2nn(-c3c(C)cc(C4CC4)cc3C(F)F)cc2c(=O)[nH]1 [Example 321, 2-[4-cyclopropyl-2-(difluoromethyl)-6-methylphenyl]-6-(methoxymethyl)-2,5-dihydro-4H-pyrazolo[3,4-d]pyrimidin-4-one] |  |  | 103
3 | > 30 | COC(C)(C)c1nc2nn(-c3c(C)cc(C)cc3O)cc2c(=O)[nH]1 [Example 85, 2-(2-hydroxy-4,6-dimethylphenyl)-6-(2-methoxypropan-2-yl)-2,5-dihydro-4H-pyrazolo[3,4-d]pyrimidin-4-one] |  | 92 | 
4 | > 30 | Cc1cc(C2CC2)cc(C)c1-n1cc2c(=O)[nH]c(-c3cn(C)nn3)nc2n1 [Example 229, 2-(4-cyclopropyl-2,6-dimethylphenyl)-6-(1-methyl-1H-1,2,3-triazol-4-yl)-2,5-dihydro-4H-pyrazolo[3,4-d]pyrimidin-4-one] |  | 99 | 
5 | > 30 | CCOc1nc2nn(-c3ccc(C)cc3C)cc2c(=O)[nH]1 [Example 82, 2-(2,4-dimethylphenyl)-6-ethoxy-2,5-dihydro-4H-pyrazolo[3,4-d]pyrimidin-4-one] |  | 98 | 
6 | > 30 | COCCOc1nc2nn(-c3c(C)cc(C4CC4)cc3C)cc2c(=O)[nH]1 [Example 194, 2-(4-cyclopropyl-2,6-dimethylphenyl)-6-(2-methoxyethoxy)-2,5-dihydro-4H-pyrazolo[3,4-d]pyrimidin-4-one] |  | 100 | 
7 | > 30 | Cc1cc(C2CC2)cc(C)c1-n1cc2c(=O)[nH]c(OCC(F)F)nc2n1 [Example 285, 2-(4-cyclopropyl-2,6-dimethylphenyl)-6-(2,2-difluoroethoxy)-2,5-dihydro-4H-pyrazolo[3,4-d]pyrimidin-4-one] |  |  | 100
8 | > 30 | CCc1cc(C2CC2)cc(C)c1-n1cc2c(=O)[nH]c(COC(F)F)nc2n1 [Example 291, 2-(4-cyclopropyl-2-ethyl-6-methylphenyl)-6-[(difluoromethoxy)methyl]-2,5-dihydro-4H-pyrazolo[3,4-d]pyrimidin-4-one] |  |  | 98
9 | > 30 | Cc1ccc(-n2cc3c(=O)[nH]c(OCC(C)O)nc3n2)c(C)c1 (racemic) [Example 89, 2-(2,4-dimethylphenyl)-6-(2-hydroxypropoxy)-2,5-dihydro-4H-pyrazolo[3,4-d]pyrimidin-4-one] |  | 79 | 
10 | > 30 | Cc1cc(O)c(-n2cc3c(=O)[nH]c(-c4ccncn4)nc3n2)c(C)c1C [Example 77, 2-(6-hydroxy-2,3,4-trimethylphenyl)-6-(pyrimidin-4-yl)-2,5-dihydro-4H-pyrazolo[3,4-d]pyrimidin-4-one] |  | 99 | 
11 | > 30 | CCOc1nc2nn(-c3c(C)cc(OC)cc3C)cc2c(=O)[nH]1 [Example 145, 6-ethoxy-2-(4-methoxy-2,6-dimethylphenyl)-2,5-dihydro-4H-pyrazolo[3,4-d]pyrimidin-4-one] |  | 106 | 
12 | > 30 | CCOc1nc2nn(-c3c(F)cc(C)cc3C3CC3)cc2c(=O)[nH]1 [Example 105, 2-(2-cyclopropyl-6-fluoro-4-methylphenyl)-6-ethoxy-2,5-dihydro-4H-pyrazolo[3,4-d]pyrimidin-4-one] |  | 99 | 
13 | > 30 | Cc1cc(C2CC2)cc(C)c1-n1cc2c(=O)[nH]c([C@@]3(F)CCOC3)nc2n1 [Example 247, 2-(4-cyclopropyl-2,6-dimethylphenyl)-6-(3-fluorooxolan-3-yl)-2,5-dihydro-4H-pyrazolo[3,4-d]pyrimidin-4-one] |  |  | 100
14 | > 30 | Cc1cc(C)c(-n2cc3c(=O)[nH]c(-c4ccn(C)n4)nc3n2)c(O)c1 [Example 23, 2-(2-hydroxy-4,6-dimethylphenyl)-6-(1-methyl-1H-pyrazol-3-yl)-2,5-dihydro-4H-pyrazolo[3,4-d]pyrimidin-4-one] |  | 100 | 

Continued, molecule first:

Row | SMILES | IC50 [1] [µM] | IL-1β inhibitory rate at 300 nM (%) ([2]; 300 nM, 0.3 µM) | inhibition at 0.3 µM [2] [%] | inhibition at 6 µM [2] [%]
15 | Cc1cc(C2CC2)cc(C)c1-n1cc2c(=O)[nH]c(C3CCCO3)nc2n1 (single isomer, unassigned) [Example 227, 2-(4-cyclopropyl-2,6-dimethylphenyl)-6-[(2R)-oxolan-2-yl]-2,5-dihydro-4H-pyrazolo[3,4-d]pyrimidin-4-one or 2-(4-cyclopropyl-2,6-dimethylphenyl)-6-[(2S)-oxolan-2-yl]-2,5-dihydro-4H-pyrazolo[3,4-d]pyrimidin-4-one (HPLC Method A: tR1)] | > 30 | 100 |  | 
16 | COCCOc1nc2nn(-c3c(C)cc(C4CC4)cc3CC(F)(F)F)cc2c(=O)[nH]1 [Example 231, 2-[4-cyclopropyl-2-methyl-6-(2,2,2-trifluoroethyl)phenyl]-6-(2-methoxyethoxy)-2,5-dihydro-4H-pyrazolo[3,4-d]pyrimidin-4-one] | > 30 |  |  | 90
17 | COc1nc2nn(-c3c(C)cc(C4CC4)cc3C)cc2c(=O)[nH]1 [Example 146, 2-(4-cyclopropyl-2,6-dimethylphenyl)-6-methoxy-2,5-dihydro-4H-pyrazolo[3,4-d]pyrimidin-4-one] | > 30 |  | 94 | 
18 | CO[C@@H](C)COc1nc2nn(-c3c(F)cc(C4CC4)cc3C(F)F)cc2c(=O)[nH]1 [Example 203, 2-[4-cyclopropyl-2-(difluoromethyl)-6-fluorophenyl]-6-[(2S)-2-methoxypropoxy]-2,5-dihydro-4H-pyrazolo[3,4-d]pyrimidin-4-one] | > 30 |  | 99 | 
19 | CCOc1nc2nn(-c3ncc(Br)cc3C)cc2c(=O)[nH]1 [Example 150, 2-(5-bromo-3-methylpyridin-2-yl)-6-ethoxy-2,5-dihydro-4H-pyrazolo[3,4-d]pyrimidin-4-one] | > 30 |  | 70 | 
20 | CCOc1nc2nn(-c3ccc(C)cc3O)c(CC)c2c(=O)[nH]1 [Example 140, 6-ethoxy-3-ethyl-2-(2-hydroxy-4-methylphenyl)-2,5-dihydro-4H-pyrazolo[3,4-d]pyrimidin-4-one] | > 30 |  | 93 | 
21 | CCOc1nc2nn(-c3ccc(C)cc3O)cc2c(=O)[nH]1 [Example 56, 6-ethoxy-2-(2-hydroxy-4-methylphenyl)-2,5-dihydro-4H-pyrazolo[3,4-d]pyrimidin-4-one] | > 30 |  | 100 | 
22 | CCOc1nc2nn(-c3c(C)cc(Br)cc3C)cc2c(=O)[nH]1 [Example 131, 2-(4-bromo-2,6-dimethylphenyl)-6-ethoxy-2,5-dihydro-4H-pyrazolo[3,4-d]pyrimidin-4-one] | > 30 |  | 100 | 
23 | COc1nc2nn(-c3c(F)cc(C4(F)CC4)cc3Br)cc2c(=O)[nH]1 [Example 204, 2-[2-bromo-6-fluoro-4-(1-fluorocyclopropyl)phenyl]-6-methoxy-2,5-dihydro-4H-pyrazolo[3,4-d]pyrimidin-4-one] | > 30 |  | 98 | 
24 | Cc1cc(C)c(-n2cc3c(=O)[nH]c(C(F)F)nc3n2)c(O)c1 [Example 94, 6-(difluoromethyl)-2-(2-hydroxy-4,6-dimethylphenyl)-2,5-dihydro-4H-pyrazolo[3,4-d]pyrimidin-4-one] | > 30 |  | 83 | 
25 | CCOc1nc2nn(-c3c(C)cc(C)cc3C(F)F)cc2c(=O)[nH]1 [Example 159, 2-[2-(difluoromethyl)-4,6-dimethylphenyl]-6-ethoxy-2,5-dihydro-4H-pyrazolo[3,4-d]pyrimidin-4-one] | > 30 |  | 103 | 
26 | COC1(c2nc3nn(-c4c(C)cc(C5CC5)cc4C)cc3c(=O)[nH]2)CC1 [Example 266, 2-(4-cyclopropyl-2,6-dimethylphenyl)-6-(1-methoxycyclopropyl)-2,5-dihydro-4H-pyrazolo[3,4-d]pyrimidin-4-one] | > 30 |  |  | 98
27 | CCOc1nc2nn(-c3c(F)cc(C4CC4)cc3F)c(C)c2c(=O)[nH]1 [Example 123, 2-(4-cyclopropyl-2,6-difluorophenyl)-6-ethoxy-3-methyl-2,5-dihydro-4H-pyrazolo[3,4-d]pyrimidin-4-one] | > 30 |  | 95 | 

From patent publication US20260297092A1, “PYRAZOLOPYRIMIDINE DERIVATIVES AS INHIBITORS OF NLRP3” (Takeda Pharmaceutical Company Limited, priority 2023, published 2026)
